{"source": "patent US10145848B2", "about": "“Small-molecule hydrophobic tagging of fusion proteins and induced degradation of same” (YALE UNIVERSITY, priority 2010, dated 2018)", "key": {"HA-HaloTag-H-RasG12V": {"target": "T1, HA-HaloTag-H-RasG12V (Rhodococcus rhodochrous, UniProt P0A3G2, C176G/H272F/K175M/Y273L)", "T1 construct": "The HaloTag protein was obtained from pHT2 vector (Promega); H-Ras carrying G12V (fusion partner, same polypeptide); expressed in transfected cells; host or cells: NIH-3T3, retroviral infection (pEYK3.1)", "experiment": "Immunoblotting of HA-HaloTag-H-RasG12V in NIH-3T3 cells", "type": "cell-based", "conditions": "1 μM, 24 hours", "description": "(a) NIH-3T3 cells were retrovirally infected with a construct expressing either HA-HaloTag-HRas(G12V) or HA-HaloTag(D106A)-HRas(G12V). The cells were then treated with vehicle or 1 μM HyT13 for 24 hours. The lysates were prepared for immunoblotting and the blots were probed with anti-HA and anti-β-actin antibodies. (b) One hundred thousand NIH-3T3 cells infected with HA-HaloTag-HRas(G12V) or HA-HaloTag(D106A)-HRas(G12V) were plated in 10% FBS containing medium onto 10-cm plates. The next day, the medium was replaced with 1% FBS containing medium, along with vehicle or 1 μM HyT13. The media was refreshed every 2 days, and the plates were pictured on day 6. Bar, 5 mm. (c) Quantification of foci as described in (b). The number of foci/cm^2 was counted from three separate plates, with error bars representing SEM. […] Tumor size was measured daily, and the tumor volume was calculated. […]\nThe indicated cells were washed twice with cold PBS and the cells were lysed in lysis buffer (1×PBS, 1% NP-40, 1 mM EDTA, 40 mM HEPES) with protease inhibitors. […] The total protein concentration was determined by Bradford assay and 50 μg of protein was loaded onto an 8% Bis-Tris gel. […] The blots were processed by standard procedures with indicated antibodies, and the band intensities were quantified by ImageJ. […]"}, "[1]": {"system": "NIH-3T3 cells infected with HA-HaloTag(D106A)-H-RasG12V", "experiment": "Focus formation assay, HA-HaloTag(D106A)-H-RasG12V cells", "type": "cell-based, mouse", "conditions": "1 μM, 1% FBS, day 6", "description": "One hundred thousand NIH-3T3 cells infected with HA-HaloTag-H-RasG12V and HA-HaloTag(D106A)-H-RasG12V were plated onto 10-cm cell culture plates in 10% FBS with DMEM. The next day, the media was replaced with 1% FBS media and the cells were administered either vehicle or 1 μM HyT13. The media and the drug were replaced every two days. On day 6, the foci were photographed and counted as the number of distinct foci per 1-cm^2 area.\nWe next explored the functional utility of HaloTag-based degradation of an oncogene by HyT13 both in cell culture and in mice. The small GTPase H-Ras is one of the most commonly mutated genes in cancer, with up to […] of cancers harboring activating mutations in this gene^35. Activating mutations, such as the H-RasG12V allele, lead to decreased dependence on extracellular mitogenic signals. […] When H-RasG12V expressing cells are grown in culture under low serum conditions they lose cell-to-cell contact inhibition and form distinct foci instead of growing as a cellular monolayer. Furthermore, these transformed cells are capable of tumor formation when injected into immuno-compromised nude mice^36,37. We investigated whether (1) HaloTag-H-RasG12V driven focus formation can be suppressed in NIH-3T3 cells and (2) HaloTag-H-RasG12V driven tumor burden in mice can be reduced by administration of HyT13. […]"}, "HA-HaloTag-Smad5": {"target": "T2, HA-HaloTag-Smad5 (Rhodococcus rhodochrous, UniProt P0A3G2, C176G/H272F/K175M/Y273L)", "T2 construct": "The HaloTag protein was obtained from pHT2 vector (Promega); Danio rerio Smad5 (fusion partner); expressed in transfected cells; host or cells: zebrafish (TLF line) embryos injected with in vitro transcribed cRNA at the one-cell stage", "experiment": "Zebrafish embryo HA-HaloTag-Smad5 degradation (immunoblot)", "type": "in vivo, Danio rerio", "conditions": "10 μM, 24 hours", "description": "The wild-type fish line TLF was used for this study. The HA-HaloTag-Smad5 in pCS2+ plasmid was in vitro transcribed with the SP6 transcription kit (Ambion). The mRNA was injected at 100 ng/μL at the one cell stage and embryos were raised to the 256-cell stage, when they were moved to glass depression slides (10-per-well) and put in 1 ml E2 media with or without HyT13 (10 μM). Embryos were cultured at 28.6° C. for 24 hours and then dechorionated and de-yolked as described^43. Approximately 60 embryos per condition were collected for immunoblot analysis, as described above.\nWe also explored the possibility of employing the hydrophobic tagging system in the zebrafish Danio rerio. We injected HA-HaloTag-Smad5 cRNA into zebrafish embryos and then treated the embryos with either vehicle or HyT13."}}}
{"smiles": "O=C(CC12CC3CC(CC(C3)C1)C2)NCCOCCOCCCCCCCl", "note": "[HyT13, 2-((3r,5r,7r)-Adamantan-1-yl)-N-(2-(2-((6-chlorohexyl)oxy)ethoxy)ethyl)acetamide]", "values": [{"measurement": "degradation of HA-HaloTag-H-RasG12V", "setting": "HA-HaloTag-H-RasG12V", "value": "readily degraded"}, {"measurement": "focus formation", "setting": "[1]", "value": "had formed many foci"}, {"measurement": "degradation of fusion protein in zebrafish embryos", "setting": "HA-HaloTag-Smad5", "value": "very efficiently degraded"}]}
